Assay results taken from US9040067B2, “Disinfecting and antimicrobial compositions” (priority 2005, dated 2015).

Columns and labels:
Type in all cases: cell-based
[1] = test system: Listeria monocytogenes; assay: MIC/MLC in brain heart infusion broth; also: key: + = growth (inactive); − = no growth (active)
Protocol: (§1) The tests were carried out in 10 ml of brain heart infusion broth. The esters were serially diluted in brain heart infusion broth of samples of, 0.1, 0.2, 0.3, 0.4 and 0.5/10 ml and challenged with 0.1 ml of 1/100 dilution of 24 hr old brain heart infusion bacterial culture. The lowest concentration determined the minimum inhibitory concentration (MIC). The samples were observed after 48 hrs at 37° C. A loopful from tubes without growth were plated on BHI agar plates and observed for growth for 24 to 48 hrs at 37° C. The samples with the lowest concentration of the ester without bacterial growth on the plates represented the minimum lethal concentration (MLC).
(§2) A series of samples of (a) methyl lactate, (b) ethyl lactate and (c) butyl lactate, alone, and in admixture with varying amounts of decyl lactate and sodium dodecyl sulfates were used to test minimum inhibitory activity (MIC) by the method described in Example II, against the cultures of E. coli 0157 H7, Listeria monocytogenes, Staphylococcus aureus, Salmonella typhi, and Pseudomonas aeruginosa.

[2] = test system: Pseudomonas aeruginosa; assay: MIC/MLC in brain heart infusion broth; conditions: for MIC, Concentration of Lactic Esters 0.5%: 0.5% ester; for MIC, Concentration of Lactic Esters 1%: 1% ester; for MIC, Concentration of Lactic Esters 2%: 2% ester; for MIC, Concentration of Lactic Esters 3%: 3% ester; for MIC, Concentration of Lactic Esters 4%: 4% ester; for MIC, Concentration of Lactic Esters 5%: 5% ester; as to all read-outs here: key: + = growth (inactive); − = no growth (active)
Protocol: as §1, §2

[3] = test system: Saccharomyces cerevisiae; assay: MIC and MLC against yeast in Sab. broth; conditions: for Lethal (MLC) Concentration 1% / Inhibitory (MIC) Concentration 1%: 1% ester; for Lethal (MLC) Concentration 1.5% / Inhibitory (MIC) Concentration 1.5%: 1.5% ester; for Lethal (MLC) Concentration 2% / Inhibitory (MIC) Concentration 2%: 2% ester; for Lethal (MLC) Concentration 3% / Inhibitory (MIC) Concentration 3%: 3% ester; for Lethal (MLC) Concentration 4% / Inhibitory (MIC) Concentration 4%: 4% ester; as to Lethal (MLC) Concentration 1%: key: + = growth (inactive); − = no growth (active); as to Lethal (MLC) Concentration 1.5%: key: + = growth (inactive); − = no growth (active); as to Lethal (MLC) Concentration 2%: key: + = growth (inactive); − = no growth (active); as to Lethal (MLC) Concentration 3%: key: + = growth (inactive); − = no growth (active); as to Lethal (MLC) Concentration 4%: key: + = growth (inactive); − = no growth (active)
Protocol: A 0.1 ml of 1/100 dilution of 48 hr old culture of S. cerevisiae was used as inoculum. The test was performed using Sab. broth. The tubes were incubated at room temperature 25° C. The test was read after 48 hrs.

## CCCCOC(=O)C(C)O (stereo not shown) [Butyl lactate, butyl lactate]
[1]; 0.5%
  MLC, Concentration of Butyl lactate 0.5%: +
[1]; 1%
  MLC, Concentration of Butyl lactate 1%: +
[1]; 2%
  MLC, Concentration of Butyl lactate 2%: −
[1]; 3%
  MLC, Concentration of Butyl lactate 3%: −
[1]; 4%
  MLC, Concentration of Butyl lactate 4%: −
[1]; 5%
  MLC, Concentration of Butyl lactate 5%: −
[2]; 0.5%
  MLC, Concentration of Butyl lactate 0.5%: +
[2]; SDS 0.0 ppm
  MIC, Concentration of Lactic Esters 0.5%: +
  MIC, Concentration of Lactic Esters 1%: +
  MIC, Concentration of Lactic Esters 2%: −
  MIC, Concentration of Lactic Esters 3%: −
  MIC, Concentration of Lactic Esters 4%: −
  MIC, Concentration of Lactic Esters 5%: −
[2]; SDS 50 ppm
  MIC, Concentration of Lactic Esters 0.5%: −
  MIC, Concentration of Lactic Esters 1%: −
  MIC, Concentration of Lactic Esters 2%: −
  MIC, Concentration of Lactic Esters 3%: −
  MIC, Concentration of Lactic Esters 4%: −
  MIC, Concentration of Lactic Esters 5%: −
[2]; SDS 100 ppm
  MIC, Concentration of Lactic Esters 0.5%: −
  MIC, Concentration of Lactic Esters 1%: −
  MIC, Concentration of Lactic Esters 2%: −
  MIC, Concentration of Lactic Esters 3%: −
  MIC, Concentration of Lactic Esters 4%: −
  MIC, Concentration of Lactic Esters 5%: −
[2]; SDS 200 ppm
  MIC, Concentration of Lactic Esters 0.5%: −
  MIC, Concentration of Lactic Esters 1%: −
  MIC, Concentration of Lactic Esters 2%: −
  MIC, Concentration of Lactic Esters 3%: −
  MIC, Concentration of Lactic Esters 4%: −
  MIC, Concentration of Lactic Esters 5%: −
[2]; 1%
  MLC, Concentration of Butyl lactate 1%: +
[2]; 2%
  MLC, Concentration of Butyl lactate 2%: +
[2]; 3%
  MLC, Concentration of Butyl lactate 3%: −
[2]; 4%
  MLC, Concentration of Butyl lactate 4%: −
[2]; 5%
  MLC, Concentration of Butyl lactate 5%: −
[3]
  Lethal (MLC) Concentration 1%: −
  Lethal (MLC) Concentration 1.5%: −
  Lethal (MLC) Concentration 2%: −
  Lethal (MLC) Concentration 3%: −
  Lethal (MLC) Concentration 4%: −
[3]; 48 hrs, 25° C
  Inhibitory (MIC) Concentration 1%: −
  Inhibitory (MIC) Concentration 1.5%: −
  Inhibitory (MIC) Concentration 2%: −
  Inhibitory (MIC) Concentration 3%: −
  Inhibitory (MIC) Concentration 4%: −
[3]; Sodium lauryl sulfate 200 ppm
  Inhibitory (MIC) Concentration 1%: −
  Lethal (MLC) Concentration 1%: −
  Inhibitory (MIC) Concentration 1.5%: −
  Lethal (MLC) Concentration 1.5%: −
  Inhibitory (MIC) Concentration 2%: −
  Lethal (MLC) Concentration 2%: −
  Inhibitory (MIC) Concentration 3%: −
  Lethal (MLC) Concentration 3%: −
  Inhibitory (MIC) Concentration 4%: −
  Lethal (MLC) Concentration 4%: −

## COC(=O)C(C)O (stereo not shown) [Methyl lactate, methyl lactate]
[2]; SDS 0.0 ppm
  MIC, Concentration of Lactic Esters 0.5%: +
  MIC, Concentration of Lactic Esters 1%: +
  MIC, Concentration of Lactic Esters 2%: −
  MIC, Concentration of Lactic Esters 3%: −
  MIC, Concentration of Lactic Esters 4%: −
  MIC, Concentration of Lactic Esters 5%: −
[2]; SDS 50 ppm
  MIC, Concentration of Lactic Esters 0.5%: −
  MIC, Concentration of Lactic Esters 1%: −
  MIC, Concentration of Lactic Esters 2%: −
  MIC, Concentration of Lactic Esters 3%: −
  MIC, Concentration of Lactic Esters 4%: −
  MIC, Concentration of Lactic Esters 5%: −
[2]; SDS 100 ppm
  MIC, Concentration of Lactic Esters 0.5%: −
  MIC, Concentration of Lactic Esters 1%: −
  MIC, Concentration of Lactic Esters 2%: −
  MIC, Concentration of Lactic Esters 3%: −
  MIC, Concentration of Lactic Esters 4%: −
  MIC, Concentration of Lactic Esters 5%: −
[2]; SDS 200 ppm
  MIC, Concentration of Lactic Esters 0.5%: −
  MIC, Concentration of Lactic Esters 1%: −
  MIC, Concentration of Lactic Esters 2%: −
  MIC, Concentration of Lactic Esters 3%: −
  MIC, Concentration of Lactic Esters 4%: −
  MIC, Concentration of Lactic Esters 5%: −
[3]
  Lethal (MLC) Concentration 1%: +
  Lethal (MLC) Concentration 1.5%: +
  Lethal (MLC) Concentration 2%: +
  Lethal (MLC) Concentration 3%: −
  Lethal (MLC) Concentration 4%: −
[3]; 48 hrs, 25° C
  Inhibitory (MIC) Concentration 1%: +
  Inhibitory (MIC) Concentration 1.5%: +
  Inhibitory (MIC) Concentration 2%: +
  Inhibitory (MIC) Concentration 3%: −
  Inhibitory (MIC) Concentration 4%: −
[3]; Sodium lauryl sulfate 200 ppm
  Inhibitory (MIC) Concentration 1%: +
  Lethal (MLC) Concentration 1%: +
  Inhibitory (MIC) Concentration 1.5%: +
  Lethal (MLC) Concentration 1.5%: +
  Inhibitory (MIC) Concentration 2%: +
  Lethal (MLC) Concentration 2%: +
  Inhibitory (MIC) Concentration 3%: −
  Lethal (MLC) Concentration 3%: −
  Inhibitory (MIC) Concentration 4%: −
  Lethal (MLC) Concentration 4%: −
